Here are results for 21 molecules from patent US11739100B2, “2,3-dihydro-1h-imidazo{1,2-a}pyrimidin-5-one and this 1,2,3,4-tetrahydropyrimido{1,2-a}pyrimidin-6-one derivatives comprising a substituted morpholine, preparation thereof and pharmaceutical use thereof” (SANOFI, priority 2012, dated 2023).

In the test the target is T1, recombinant Vps34 (Homo sapiens, UniProt Q8NEB9).
T1 construct: purchased Invitrogen PV5126
Put plainly: Phosphorylation of phosphatidylinositol (PI) by Vps34 in vitro, ADP detected by TR-FRET (HTRF Transcreener ADP). It is filed as biochemical. The conditions noted are these: 10 μM ATP, 55 μg/ml PI, approximately 3 nM Vps34, 1 hour at ambient temperature; absolute IC50, mean of two independent experiments; read-out: IC50 activity range. On the technique in general: In TR-FRET formats the signal depends on donor and acceptor labels being close together.

T1 sequence (Q8NEB9 whole entry): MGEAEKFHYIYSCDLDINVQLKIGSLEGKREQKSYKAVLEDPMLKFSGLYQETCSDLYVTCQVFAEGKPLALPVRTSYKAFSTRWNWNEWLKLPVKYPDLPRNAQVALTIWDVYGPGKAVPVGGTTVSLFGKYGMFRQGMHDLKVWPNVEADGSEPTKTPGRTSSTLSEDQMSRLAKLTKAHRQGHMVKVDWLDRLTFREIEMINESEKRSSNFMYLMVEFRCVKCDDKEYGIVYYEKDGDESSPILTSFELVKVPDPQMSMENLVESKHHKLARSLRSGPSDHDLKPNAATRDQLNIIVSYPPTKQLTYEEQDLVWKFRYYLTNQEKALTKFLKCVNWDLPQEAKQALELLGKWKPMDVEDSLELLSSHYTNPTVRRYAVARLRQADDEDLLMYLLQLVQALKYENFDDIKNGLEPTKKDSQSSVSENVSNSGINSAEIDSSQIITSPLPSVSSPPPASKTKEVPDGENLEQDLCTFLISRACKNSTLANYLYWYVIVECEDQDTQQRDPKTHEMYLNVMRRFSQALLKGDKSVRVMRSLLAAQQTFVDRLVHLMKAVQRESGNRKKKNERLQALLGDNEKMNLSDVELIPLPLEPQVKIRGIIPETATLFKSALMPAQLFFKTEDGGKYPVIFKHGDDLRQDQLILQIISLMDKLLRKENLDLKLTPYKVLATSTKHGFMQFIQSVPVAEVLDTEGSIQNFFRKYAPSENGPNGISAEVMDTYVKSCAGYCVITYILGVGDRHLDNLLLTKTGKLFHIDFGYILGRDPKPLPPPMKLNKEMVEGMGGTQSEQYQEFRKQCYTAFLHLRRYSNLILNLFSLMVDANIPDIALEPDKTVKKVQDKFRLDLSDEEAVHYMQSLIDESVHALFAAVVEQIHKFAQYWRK

`C[C@@H]1COCCN1c1cc(=O)n2c(n1)N(CC(=O)c1cccnc1)[C@](C)(C(F)(F)F)C2` [Example 180, (S)-2-Methyl-7-((R)-3-methylmorpholin-4-yl)-1-(2-oxo-2-pyridin-3-ylethyl)-2-trifluoromethyl-2,3-dihydro-1H-imidazo[1,2-a]-pyrimidin-5-one]: the half-inhibitory concentration (IC50) is under 10 nM.

Regarding `C[C@@H]1COCCN1c1cc(=O)n2c(n1)N(Cc1ccon1)C(C)(C)CC2` [Example 298, 9-Isoxazol-3-ylmethyl-8,8-dimethyl-2-((R)-3-methylmorpholin-4-yl)-6,7,8,9-tetrahydro-pyrimido[1,2-a]-pyrimidin-4-one], the IC50 was in the range of 10 to 100 nM. Under `CC(C)CCC(=O)CN1c2nc(N3CCOC[C@H]3C)c(F)c(=O)n2CC[C@H]1C(F)(F)F` [Example 279, (S)-3-Fluoro-2-((R)-3-methylmorpholin-4-yl)-9-(5-methyl-2-oxo-hexyl)-8-trifluoromethyl-6,7,8,9-tetrahydro-pyrimido[1,2-a]-pyrimidin-4-one] stands under 10 nM.

`C[C@@H]1COCCN1c1cc(=O)n2c(n1)N(CC(=O)C1(C)CCOCC1)[C@H](C(F)(F)F)CC2` [Example 310, (S)-2-((R)-3-Methyl-morpholin-4-yl)-9-[2-(4-methyl-tetrahydro-pyran-4-yl)-2-oxo-ethyl]-8-trifluoromethyl-6,7,8,9-tetrahydro-pyrimido[1,2-a]-pyrimidin-4-one]: the IC50 is under 10 nM. Under `CC(C)C(=O)CN1c2nc(N3CCOC[C@H]3C)c(F)c(=O)n2CC[C@H]1C(F)(F)F` [Example 4, (S)-3-Fluoro-2-((R)-3-methylmorpholin-4-yl)-9-(3-methyl-2-oxo-butyl)-8-trifluoromethyl-6,7,8,9-tetrahydro-pyrimido[1,2-a]-pyrimidin-4-one] stands under 10 nM; under `C[C@@H]1COCCN1c1cc(=O)n2c(n1)N(Cc1ccc(F)nc1)[C@H](C(F)(F)F)CC2` [Example 24, (S)-9-(6-Fluoropyridin-3-ylmethyl)-2-((R)-3-methylmorpholin-4-yl)-8-trifluoromethyl-6,7,8,9-tetrahydro-pyrimido[1,2-a]-pyrimidin-4-one], under 10 nM; under `C[C@@H]1COCCN1c1nc2n(c(=O)c1F)CC[C@@H](C(F)(F)F)N2CC(=O)C(C)(C)C` [Example 97, (S)-9-(3,3-Dimethyl-2-oxobutyl)-3-fluoro-2-((R)-3-methyl-morpholin-4-yl)-8-trifluoromethyl-6,7,8,9-tetrahydro-pyrimido[1,2-a]-pyrimidin-4-one], under 10 nM. Under `CC(C)c1nc(CN2c3nc(N4CCOC[C@H]4C)cc(=O)n3CC[C@H]2C(F)(F)F)no1` [Example 201, (S)-9-(5-Isopropyl-[1,2,4]oxadiazol-3-yl-methyl)-2-((R)-3-methylmorpholin-4-yl)-8-trifluoromethyl-6,7,8,9-tetrahydro-pyrimido[1,2-a]-pyrimidin-4-one] stands under 10 nM. Under `O=C(CN1c2nc(N3CC4CCC(C3)O4)c(F)c(=O)n2CC[C@H]1C(F)(F)F)C1CC1` [Example 273, (S)-9-(2-Cyclopropyl-2-oxoethyl)-3-fluoro-2-(8-oxa-3-aza-bicyclo[3.2.1]oct-3-yl)-8-trifluoromethyl-6,7,8,9-tetrahydro-pyrimido[1,2-a]-pyrimidin-4-one] stands 10 to 100 nM; under `Cc1cc(CN2c3nc(N4CCOC[C@H]4C)cc(=O)n3CC[C@H]2C(F)(F)F)on1` [Example 101, (S)-9-(3-Methyl-isoxazol-5-ylmethyl)-2-((R)-3-methyl-morpholin-4-yl)-8-trifluoromethyl-6,7,8,9-tetrahydro-pyrimido[1,2-a]-pyrimidin-4-one], under 10 nM. On to `C[C@@H]1COCCN1c1cc(=O)n2c(n1)N(CC(=O)OC(C)(C)C)[C@H](C(F)(F)F)CC2` [Example 260, [(S)-8-((R)-3-Methyl-morpholin-4-yl)-6-oxo-2-trifluoromethyl-3,4-dihydro-2H,6H-pyrimido[1,2-a]-pyrimidin-1-yl]acetic acid tert-butyl ester], for which the IC50 is under 10 nM. In the case of `CO/N=C(\CN1c2nc(N3CCOC[C@H]3C)cc(=O)n2CC[C@H]1C(F)(F)F)C1CC1` (single isomer, unassigned) [Example 307], the IC50 is under 10 nM. In the case of `C[C@@H]1COCCN1c1cc(=O)n2c(n1)N(Cc1cccnc1F)[C@H](C(F)(F)F)CC2` [Example 221, (S)-9-(2-Fluoropyridin-3-ylmethyl)-2-((R)-3-methylmorpholin-4-yl)-8-trifluoromethyl-6,7,8,9-tetrahydro-pyrimido[1,2-a]-pyrimidin-4-one] it was under 10 nM; in that of `C[C@@H]1COCCN1c1nc2n(c(=O)c1F)C[C@@](C)(C(F)(F)F)N2CC(=O)c1cccnc1` [Example 189, (S)-6-Fluoro-2-methyl-7-((R)-3-methyl-morpholin-4-yl)-1-(2-oxo-2-pyridin-3-yl-ethyl)-2-trifluoromethyl-2,3-dihydro-1H-imidazo[1,2-a]-pyrimidin-5-one], under 10 nM; in that of `C[C@@H]1COCCN1c1cc(=O)n2c(n1)N(CC(C)(C)O)CC[C@@H]2C(F)(F)F` [Example 113, (R)-9-(2-Hydroxy-2-methylpropyl)-2-((R)-3-methylmorpholin-4-yl)-6-trifluoromethyl-6,7,8,9-tetrahydro-pyrimido[1,2-a]-pyrimidin-4-one], 10 to 100 nM. Under `C[C@@H]1COCCN1c1nc2n(c(=O)c1F)CC[C@@H](C(F)(F)F)N2Cc1ncco1` [Example 42, (S)-3-Fluoro-2-((R)-3-methylmorpholin-4-yl)-9-oxazol-2-ylmethyl-8-trifluoromethyl-6,7,8,9-tetrahydro-pyrimido[1,2-a]-pyrimidin-4-one] stands under 10 nM; under `O=C(CN1c2nc(N3CC4CCC(C3)O4)cc(=O)n2CC[C@H]1C(F)(F)F)c1ccccn1` [Example 171, (S)-2-(8-Oxa-3-aza-bicyclo[3.2.1]oct-3-yl)-9-(2-oxo-2-pyridin-2-ylethyl)-8-trifluoromethyl-6,7,8,9-tetrahydro-pyrimido[1,2-a]-pyrimidin-4-one], 10 to 100 nM; under `COC(=O)CN1c2nc(N3CCOC[C@H]3C)cc(=O)n2CC[C@H]1C(F)(F)F` [Example 262, [(S)-8-((R)-3-Methyl-morpholin-4-yl)-6-oxo-2-trifluoromethyl-3,4-dihydro-2H,6H-pyrimido[1,2-a]-pyrimidin-1-yl]acetic acid methyl ester], under 10 nM. In the case of `C[C@@H]1COCCN1c1cc(=O)n2c(n1)N(CC(=O)c1ncccc1F)[C@H](C(F)(F)F)CC2` [Example 60, (S)-9-[2-(3-Fluoro-pyridin-2-yl)-2-oxo-ethyl]-2-((R)-3-methyl-morpholin-4-yl)-8-trifluoromethyl-6,7,8,9-tetrahydro-pyrimido[1,2-a]-pyrimidin-4-one], the IC50 was under 10 nM. Under `C[C@@H]1COCCN1c1cc(=O)n2c(n1)N(C[C@H](F)c1ccccc1)[C@H](C(F)(F)F)CC2` [Example 295, (S)-9-(2-Fluoro-2-phenylethyl)-2-((R)-3-methylmorpholin-4-yl)-8-trifluoromethyl-6,7,8,9-tetrahydro-pyrimido[1,2-a]-pyrimidin-4-one] stands under 10 nM; under `C[C@@H]1COCCN1c1nc2n(c(=O)c1F)CCC(C)(C)N2Cc1ccnn1C(F)F` [Example 74, 9-(2-Difluoromethyl-2H-pyrazol-3-yl-methyl)-3-fluoro-8,8-dimethyl-2-((R)-3-methylmorpholin-4-yl)-6,7,8,9-tetrahydro-pyrimido[1,2-a]-pyrimidin-4-one], 10 to 100 nM.

By IC50 is commonly meant the concentration that inhibits the measured activity by half.
